Literature values, collected in patent publication US20030207846A1, “Treatment of pain, inflammation, and inflammation-related disorders with a combination of a cyclooxygenase-2 selective inhibitor and aspirin” (Pharmacia Corporation, priority 2002, published 2003).

How the values were obtained:
upper GI tract = settings: low-dose 75-300 mg/day
[1] = tested on: platelet aggregation and ex-vivo serum-generated thromboxane B2 production; settings: healthy human subjects

Row | Compound | risk of upper GI tract complications (upper GI tract) | inhibition of platelet function (platelet function; 40 mg, conditions of limited compliance) | efficacy as an antiplatelet agent (platelet function; 100-300 mg/day, plain or slow release form) | tolerability ([1]; alone or in combination with the aspirin) | effect on the anti-platelet effects of aspirin (inhibition of platelet aggregation and ex-vivo serum-generated thromboxane B2 production) ([1]; rofecoxib 50 mg/day with aspirin 81 mg/day)
1 | CC(=O)Oc1ccccc1C(=O)O [aspirin, 2-(acetyloxy)benzoic acid] | increased the risk of upper GI tract complications | not sufficient to inhibit platelet function | very effective | – | –
2 | CS(=O)(=O)c1ccc(C2=C(c3ccccc3)C(=O)OC2)cc1 [rofecoxib] | – | – | – | well-tolerated | did not alter the anti-platelet effects of the aspirin
